Experimental findings from the supplement of paper PMC11208160 are described below.
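Also: IS621 recombinase and bridge RNA in Escherichia coli cells.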

The data set is described as follows: recombinant barcode read abundance after kanamycin selection (control-corrected) (log10(CPM+1)); higher = more efficient recombination; sequences stand for … in AGTGCAGAGAAAATCGGCCAGTTTTCTCTGCCTGCAGTCCGCATGCCGT…AGATTTATGCAGCGGACTGCCTTTCTCCCAAAGTGATAAACCGGACAGTATCATGGACCGGTTTTCCCGGTAATCCGTATTTGCAAGGTTGGTTTCACT; site = the 11-nt target. The procedure, abridged:
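Two replicates per condition were plated: chloramphenicol/ampicillin LB agar for the control, and chloramphenicol/ampicillin/kanamycin with 0.1 mM IPTG for selection. The pooled E. coli screen behind them paired targets with IS621 bridge RNA target-binding loops. Recombination efficiency is expressed from averaged, control-corrected barcode counts per million at recombinant junctions, as log10(CPM+1).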
For the sequence “CTTGAGCCTTGGGTTCTAACCTGTTGCGT (site CTTGAGCCTAC)”, the “recombinant barcode read abundance (log10)” value was determined as 2.87.
The figure for “CTTGAGCCTTGGGTTCTAACCTGTTGCGT (site GTTGAGTCTAC)” is 0.0339.
In the case of “CTTGGGCCTTGGGTTCTAACCTGTTGCGG (site CTTGGGCCTCC)” it was 2.67; in that of “CTTGGGCCTTGGGTTCTAACCTGTTGCGG (site GTTGGGGCTCC)”, 0.0414; in that of “CTTGGGTCTTGGGTTCTAACCTGTTGCCT (site CTTGGGTCTAG)”, 0.998.
As for “CTTGGGTCTTGGGTTCTAACCTGTTGCCT (site CTTGGTTCTAG)”, the “recombinant barcode read abundance (log10)” value is 0.122.
Turning to “CTTTGTACTTGGGTTCTAACCTGTTGCCT (site CCTTGTACTAG)”, the “recombinant barcode read abundance (log10)” value is 0.265.
The figure for “CTTTGTACTTGGGTTCTAACCTGTTGCCT (site CTTTGTACTAG)” is 0.419; for “GAAAACTCTTGGGTTCTAACCTGTTGCCT (site AGGTCTACTCC)” it is 0.104; for “GAAAACTCTTGGGTTCTAACCTGTTGCCT (site GAAAACTCTAG)” it is 1.11.
In the case of “GAAAAGTCTTGGGTTCTAACCTGTTGCTG (site CTCGCTCCTTG)” it was 0.185.
In the case of “GAAAAGTCTTGGGTTCTAACCTGTTGCTG (site GAAAAGTCTCA)” it was 1.28.
As for “GAAAATCCTTGGGTTCTAACCTGTTGCCT (site GAAAATCCTAG)”, the “recombinant barcode read abundance (log10)” value was 0.304.
In the case of “GAAAATCCTTGGGTTCTAACCTGTTGCCT (site GAAACTCCTAG)” it was 0.0115; in that of “GAAAATCCTTGGGTTCTAACCTGTTGCCT (site GAAAGTCCTAG)”, 0.0177; in that of “GAAAATCCTTGGGTTCTAACCTGTTGCCT (site GAAATTCCTAG)”, 0.297.
In the case of “GAAACGGCTTGGGTTCTAACCTGTTGCCT (site GAAAAGGCTAG)” it was 0.0884.
The figure for “GAAACGGCTTGGGTTCTAACCTGTTGCCT (site GAAACGGCTAG)” is 0.091; for “GAAACGGCTTGGGTTCTAACCTGTTGCCT (site GAAAGGGCTAG)” it is 0.0962.
As for “GAAACGGCTTGGGTTCTAACCTGTTGCCT (site GAAATGGCTAG)”, the “recombinant barcode read abundance (log10)” value came out at 0.323.
As to “GAAAGTTCTTGGGTTCTAACCTGTTGCCT (site GAAAGTTCTAG)”, the “recombinant barcode read abundance (log10)” value was determined as 1.15.
Consider “GAAAGTTCTTGGGTTCTAACCTGTTGCCT (site GCAAGTTCTAG)”, for which the “recombinant barcode read abundance (log10)” value stood at 0.0711.
For “GAAAGTTCTTGGGTTCTAACCTGTTGCCT (site GGAAGTTCTAG)”, the “recombinant barcode read abundance (log10)” value was found to be 0.109.
Regarding “GAAAGTTCTTGGGTTCTAACCTGTTGCCT (site GTAAGTTCTAG)”, the “recombinant barcode read abundance (log10)” value amounted to 0.153.
On to “GAAATGGCTTGGGTTCTAACCTGTTGCCT (site GAAAAGGCTAG)”, for which the “recombinant barcode read abundance (log10)” value was determined as 0.0553.
As to “GAAATGGCTTGGGTTCTAACCTGTTGCCT (site GAAACGGCTAG)”, the “recombinant barcode read abundance (log10)” value was 0.237.
In the case of “GAAATGGCTTGGGTTCTAACCTGTTGCCT (site GAAAGGGCTAG)” it was 0.108.
In the case of “GAAATGGCTTGGGTTCTAACCTGTTGCCT (site GAAATGGCTAG)”, the “recombinant barcode read abundance (log10)” value is 0.309.
On to “GAACACACTTGGGTTCTAACCTGTTGCCG (site GAACACACTCG)”, for which the “recombinant barcode read abundance (log10)” value worked out at 1.56.
The figure for “GAACACACTTGGGTTCTAACCTGTTGCCG (site GCACACACTCA)” is 0.794; for “GAACACTCTTGGGTTCTAACCTGTTGCTG (site GAACACTCTCA)” it is 2.09.
The figure for “GAACACTCTTGGGTTCTAACCTGTTGCTG (site TAACACTCTAA)” is 0.113.
The figure for “GAACCTACTTGGGTTCTAACCTGTTGCCA (site GAACCTACTTG)” is 1.16; for “GAACCTACTTGGGTTCTAACCTGTTGCCA (site GGACCTACTTG)” it is 0.0691; for “GAACTGCCTTGGGTTCTAACCTGTTGCTT (site CCTGACTCTGT)” it is 0.00853.
Take “GAACTGCCTTGGGTTCTAACCTGTTGCTT (site GAACTGCCTAA)”: the “recombinant barcode read abundance (log10)” value worked out at 1.35.
“GAAGAGTCTTGGGTTCTAACCTGTTGCCT (site GAAGAGTCTAG)”: the “recombinant barcode read abundance (log10)” value was determined as 2.11.
In the case of “GAAGAGTCTTGGGTTCTAACCTGTTGCCT (site GCAGAGTCTAG)” it was 0.0703; in that of “GAAGAGTCTTGGGTTCTAACCTGTTGCCT (site GGAGAGTCTAG)”, 0.233.
In the case of “GAAGAGTCTTGGGTTCTAACCTGTTGCCT (site GTAGAGTCTAG)” it was 1.29; in that of “GAAGCGCCTTGGGTTCTAACCTGTTGCCT (site GAAGAGCCTAG)”, 0.0683; in that of “GAAGCGCCTTGGGTTCTAACCTGTTGCCT (site GAAGCGCCTAG)”, 1.42.
In the case of “GAAGCGCCTTGGGTTCTAACCTGTTGCCT (site GAAGGGCCTAG)” it was 0.0832.
With “GAAGCGCCTTGGGTTCTAACCTGTTGCCT (site GAAGTGCCTAG)”, the “recombinant barcode read abundance (log10)” value is 0.397.
The figure for “GAAGCTACTTGGGTTCTAACCTGTTGCGT (site GAAGCTACTAC)” is 1.84.
In the case of “GAAGCTACTTGGGTTCTAACCTGTTGCGT (site GATGCTACTCC)” it was 0.0227; in that of “GAATCAACTTGGGTTCTAACCTGTTGCTT (site GAATCAACTAA)”, 0.0878; in that of “GAATCAACTTGGGTTCTAACCTGTTGCTT (site GACTCGACTAA)”, 0.119.
The figure for “GAATGTTCTTGGGTTCTAACCTGTTGCTT (site GAATATTCTAA)” is 0.0132; for “GAATGTTCTTGGGTTCTAACCTGTTGCTT (site GAATGTTCTAA)” it is 0.402; for “GAATTAGCTTGGGTTCTAACCTGTTGCGG (site GAATTAGCTCC)” it is 1.71.
Consider “GAATTAGCTTGGGTTCTAACCTGTTGCGG (site GTATTAGCTCG)”, for which the “recombinant barcode read abundance (log10)” value stood at 0.287.
The figure for “GACAGACCTTGGGTTCTAACCTGTTGCCT (site AACAGACCTAG)” is 0.83.
The figure for “GACAGACCTTGGGTTCTAACCTGTTGCCT (site CACAGACCTAG)” is 0.193; for “GACAGACCTTGGGTTCTAACCTGTTGCCT (site GACAGACCTAG)” it is 1.72; for “GACAGACCTTGGGTTCTAACCTGTTGCCT (site TACAGACCTAG)” it is 0.425.
Take “GACAGCCCTTGGGTTCTAACCTGTTGCTG (site GACAGCCCTCA)”: the “recombinant barcode read abundance (log10)” value amounted to 0.991.
As to “GACAGCCCTTGGGTTCTAACCTGTTGCTG (site GTCAGCCCTCA)”, the “recombinant barcode read abundance (log10)” value came out at 0.0582.
The figure for “GACAGTACTTGGGTTCTAACCTGTTGCCT (site AACAGTACTAG)” is 0.165.
In the case of “GACAGTACTTGGGTTCTAACCTGTTGCCT (site CACAGTACTAG)”, the “recombinant barcode read abundance (log10)” value worked out at 0.306.
In the case of “GACAGTACTTGGGTTCTAACCTGTTGCCT (site GACAGTACTAG)” it was 0.714; in that of “GACAGTACTTGGGTTCTAACCTGTTGCCT (site TACAGTACTAG)”, 0.79; in that of “GACATATCTTGGGTTCTAACCTGTTGCCA (site GACATATCTCA)”, 0.337.
The figure for “GACATATCTTGGGTTCTAACCTGTTGCCA (site GACATATCTTG)” is 0.204; for “GACATATCTTGGGTTCTAACCTGTTGCTT (site ACTGGTCCTCC)” it is 0.0369; for “GACATATCTTGGGTTCTAACCTGTTGCTT (site GACATATCTAA)” it is 0.358.
As for “GACATTCCTTGGGTTCTAACCTGTTGCTT (site CTATGAACTTG)”, the “recombinant barcode read abundance (log10)” value was 0.0749.
The figure for “GACATTCCTTGGGTTCTAACCTGTTGCTT (site GACATTCCTAA)” is 0.21; for “GACCTACCTTGGGTTCTAACCTGTTGCCT (site GACATACCTAG)” it is 0.0646.
In the case of “GACCTACCTTGGGTTCTAACCTGTTGCCT (site GACCTACCTAG)” it was 1.8; in that of “GACCTACCTTGGGTTCTAACCTGTTGCCT (site GACGTACCTAG)”, 0.27; in that of “GACCTACCTTGGGTTCTAACCTGTTGCCT (site GACTTACCTAG)”, 0.359.
The figure for “GACCTGACTTGGGTTCTAACCTGTTGCCA (site GACCTGACTTG)” is 0.463; for “GACCTGACTTGGGTTCTAACCTGTTGCCA (site GACCTGGCTCG)” it is 0.128; for “GACGAGTCTTGGGTTCTAACCTGTTGCTA (site GACGAGTCTTA)” it is 1.01.
On to “GACGAGTCTTGGGTTCTAACCTGTTGCTA (site GGCGAGTCTTA)”, for which the “recombinant barcode read abundance (log10)” value worked out at 0.154.
In the case of “GACGGACCTTGGGTTCTAACCTGTTGCAT (site GACGGACCTAT)” it was 2.13.
